Experimental data from patent publication US20070259841A1, “Combinations for the treatment of rheumatoid arthritis” (CombinatoRx, Incorporated, priority 2002, published 2007).

Experiments:
TNF-α secretion = assay: TNF-α ELISA: TNF-alpha suppression in PMA/ionomycin-induced white blood cells; details: for TNF-α inhibition achievable by steroid alone: even at very high concentrations
[1] = 200 mg/day orally; cited from earlier work

CC(=O)OCC(=O)[C@@]1(OC(C)=O)[C@@H](C)C[C@H]2[C@@H]3C[C@H](F)C4=CC(=O)C=C[C@]4(C)[C@@]3(F)[C@@H](O)C[C@@]21C [Diflorasone, diflorasone]
TNF-alpha Suppression (TNF-α secretion; Diflorasone 0.5 nM, Clotrimazole 0.000 μM): 9.84%
TNF-alpha Suppression (TNF-α secretion; Diflorasone 0.9 nM, Clotrimazole 0.000 μM): 16.12%
TNF-alpha Suppression (TNF-α secretion; Diflorasone 1.9 nM, Clotrimazole 0.000 μM): 21.93%
TNF-alpha Suppression (TNF-α secretion; Diflorasone 3.8 nM, Clotrimazole 0.000 μM): 29.01%
TNF-alpha Suppression (TNF-α secretion; Diflorasone 7.5 nM, Clotrimazole 0.000 μM): 36.86%
TNF-alpha Suppression (TNF-α secretion; Diflorasone 15.0 nM, Clotrimazole 0.000 μM): 41.37%
TNF-alpha Suppression (TNF-α secretion; Diflorasone 30.0 nM, Clotrimazole 0.000 μM): 49.96%
TNF-alpha Suppression (TNF-α secretion; Diflorasone 60.0 nM, Clotrimazole 0.000 μM): 48.95%
TNF-alpha Suppression (TNF-α secretion; Diflorasone 120.0 nM, Clotrimazole 0.000 μM): 47.05%
TNF-α inhibition achievable by steroid alone (TNF-α secretion; diflorasone alone): 47%
suppression of TNF-α secretion (TNF-α secretion; single agent concentration of 3.8 nM, P/I stimulated PBMCs): 29%

Clc1ccccc1C(c1ccccc1)(c1ccccc1)n1ccnc1 [Clotrimazole, clotrimazole]
TNF-alpha Suppression (TNF-α secretion; Diflorasone 0.0 nM, Clotrimazole 0.008 μM): 4.92%
TNF-alpha Suppression (TNF-α secretion; Diflorasone 0.0 nM, Clotrimazole 0.014 μM): 5.86%
TNF-alpha Suppression (TNF-α secretion; Diflorasone 0.0 nM, Clotrimazole 0.031 μM): 12.47%
TNF-alpha Suppression (TNF-α secretion; Diflorasone 0.0 nM, Clotrimazole 0.063 μM): 11.43%
TNF-alpha Suppression (TNF-α secretion; Diflorasone 0.0 nM, Clotrimazole 0.125 μM): 18.40%
TNF-alpha Suppression (TNF-α secretion; Diflorasone 0.0 nM, Clotrimazole 0.250 μM): 14.29%
TNF-alpha Suppression (TNF-α secretion; Diflorasone 0.0 nM, Clotrimazole 0.500 μM): 20.07%
TNF-alpha Suppression (TNF-α secretion; Diflorasone 0.0 nM, Clotrimazole 1.000 μM): 19.90%
TNF-alpha Suppression (TNF-α secretion; Diflorasone 0.0 nM, Clotrimazole 2.000 μM): 30.02%

Clc1ccc(COC(Cn2ccnc2)c2ccc(Cl)cc2Cl)cc1 (stereo not shown) [Econazole, econazole]
TNF-alpha Suppression (TNF-α secretion; Dexamethasone 0.0 nM, Econazole 0.035 μM): 13.30%
TNF-alpha Suppression (TNF-α secretion; Dexamethasone 0.0 nM, Econazole 0.070 μM): 20.05%
TNF-alpha Suppression (TNF-α secretion; Dexamethasone 0.0 nM, Econazole 0.141 μM): 14.11%
TNF-alpha Suppression (TNF-α secretion; Dexamethasone 0.0 nM, Econazole 0.281 μM): 16.99%
TNF-alpha Suppression (TNF-α secretion; Dexamethasone 0.0 nM, Econazole 1.124 μM): 38.71%
TNF-alpha Suppression (TNF-α secretion; Dexamethasone 0.0 nM, Econazole 2.249 μM): 43.90%
TNF-alpha Suppression (TNF-α secretion; Dexamethasone 0.0 nM, Econazole 4.497 μM): 53.07%
TNF-alpha Suppression (TNF-α secretion; Dexamethasone 0.0 nM, Econazole 8.995 μM): 70.06%

C[C@@H]1C[C@H]2[C@@H]3CCC4=CC(=O)C=C[C@]4(C)[C@@]3(F)[C@@H](O)C[C@]2(C)[C@@]1(O)C(=O)CO [Dexamethasone, dexamethasone]
TNF-alpha Suppression (TNF-α secretion; Dexamethasone 1.0 nM, Econazole 0.000 μM): 23.96%
TNF-alpha Suppression (TNF-α secretion; Dexamethasone 2.0 nM, Econazole 0.000 μM): 33.10%
TNF-alpha Suppression (TNF-α secretion; Dexamethasone 4.0 nM, Econazole 0.000 μM): 36.87%
TNF-alpha Suppression (TNF-α secretion; Dexamethasone 8.0 nM, Econazole 0.000 μM): 40.33%
TNF-alpha Suppression (TNF-α secretion; Dexamethasone 16.0 nM, Econazole 0.000 μM): 44.12%
TNF-alpha Suppression (TNF-α secretion; Dexamethasone 32.0 nM, Econazole 0.000 μM): 51.26%
TNF-alpha Suppression (TNF-α secretion; Dexamethasone 64.0 nM, Econazole 0.000 μM): 54.35%
TNF-alpha Suppression (TNF-α secretion; Dexamethasone 127.0 nM, Econazole 0.000 μM): 52.97%
TNF-alpha Suppression (TNF-α secretion; Dexamethasone 255.0 nM, Econazole 0.000 μM): 59.93%
TNF-α inhibition achievable by steroid alone (TNF-α secretion; dexamethasone alone): 60%
suppression of TNF-α secretion (TNF-α secretion; single agent concentration of 4 nM, PMA and ionomycin stimulated PBMCs): 40%

CC(=O)N1CCN(c2ccc(OCC3COC(Cn4ccnc4)(c4ccc(Cl)cc4Cl)O3)cc2)CC1 (stereo not shown) [ketoconazole]
serum concentration [1]: about 3.2 micrograms
